Assay results taken from patent US12146004B2, “Polymyxin compounds and uses thereof” (priority 2014, dated 2024).
Values after ≈ are worked out from the molar mass of the structure shown. Like-named read-outs stand apart in the source and are kept apart here. Bridge positions count the residues as written; N and C are the ends. Square brackets hold non-standard residues; d marks the D form. Peptide text beside a SMILES is read from it. * marks the point of attachment. ξ: configuration not given here. Thr(3ξ) = CC(O)[C@H](N)C(=O)O; Dab = NCC[C@H](N)C(=O)O; X6 = CCCCCCC(CCN)C(=O)*

Key:
Type in all cases: cell-based
HK-2 cells = system: HK-2 cells
From the text: Values are reported relative to Polymyxin B.

Acinetobacter baumannii = system: Acinetobacter baumannii
Outline: (§1)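 Each compound was tested against a panel of up to nine strains per Gram-negative species. The panel included strains that show elevated MICs to Polymyxin. Activity was recorded as MIC in μg/mL.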

Klebsiella pneumoniae = system: Klebsiella pneumoniae
Outline: as §1

Escherichia coli = system: Escherichia coli
Outline: as §1

Pseudomonas aeruginosa = system: Pseudomonas aeruginosa
Outline: as §1

| Compound | HK-2 IC50 (HK-2 cells) [µg/mL] | MIC A. baumanii 053 (Acinetobacter baumannii) [µg/mL] | MIC A. baumanii 056 (Acinetobacter baumannii) [µg/mL] | MIC A. baumanii ATCC BAA-747 (Acinetobacter baumannii) [µg/mL] | MIC K. pneumoniae 063 (Klebsiella pneumoniae) [µg/mL] | MIC K. pneumoniae 065 (Klebsiella pneumoniae) [µg/mL] | MIC K. pneumoniae ATCC 4352 (Klebsiella pneumoniae) [µg/mL] | MIC E. coli 058 (Escherichia coli) [µg/mL] | MIC E. coli 061 (Escherichia coli) [µg/mL] | MIC E. coli ATCC 25922 (Escherichia coli) [µg/mL] | MIC P. aeruginosa 068 (Pseudomonas aeruginosa) [µg/mL] | MIC P. aeruginosa 070 (Pseudomonas aeruginosa) [µg/mL] | MIC P. aeruginosa ATCC 27853 (Pseudomonas aeruginosa) [µg/mL] | MIC A. baumanii NCTC 13424 (Acinetobacter baumannii) [µg/mL] | MIC K. pneumoniae ATCC 13882 (Klebsiella pneumoniae) [µg/mL] | MIC E. coli NCTC 9001 (Escherichia coli) [µg/mL] | MIC P. aeruginosa CCUG 59347 (Pseudomonas aeruginosa) [µg/mL] | also measured |
| --- | --- | --- | --- | --- | --- | --- | --- | --- | --- | --- | --- | --- | --- | --- | --- | --- | --- | --- |
| CC(C)CC(CN)C(=O)N[C@H](C(=O)N[C@@H](CN)C(=O)N[C@H]1CCNC(=O)[C@H]([C@@H](C)O)NC(=O)[C@H](CCN)NC(=O)[C@H](CCN)NC(=O)[C@H](CC(C)C)NC(=O)[C@@H](Cc2ccc(-c3ccccc3)cc2)NC(=O)[C@H](CCN)NC1=O)C(C)O (single isomer, unassigned; isomer 2) [Example 16, 2-aminomethyl-4-methyl pentanoyl polymyxin L-Thr-L-Dap-polymyxin [D-(4-phenyl Phe)]-6]heptapeptide. Isomer 2] | 32 | 16 (≈ 13.9 µM) | 4 (≈ 3.47 µM) | 0.25 (≈ 0.217 µM) | 16 (≈ 13.9 µM) | 1 (≈ 0.868 µM) | 0.5 (≈ 0.434 µM) | 4 (≈ 3.47 µM) | 16 (≈ 13.9 µM) | 0.25 (≈ 0.217 µM) | 4 (≈ 3.47 µM) | 8 (≈ 6.94 µM) | 0.5 (≈ 0.434 µM) |  |  |  |  | MIC K. pneumoniae 062 (Klebsiella pneumoniae): 4 µg/mL (≈ 3.47 µM); MIC K. pneumoniae 064 (Klebsiella pneumoniae): 2 µg/mL (≈ 1.74 µM); MIC K. pneumoniae 066 (Klebsiella pneumoniae): 4 µg/mL (≈ 3.47 µM); MIC K. pneumoniae 067 (Klebsiella pneumoniae): 32 µg/mL (≈ 27.8 µM); MIC E. coli 059 (Escherichia coli): 1 µg/mL (≈ 0.868 µM); MIC E. coli 060 (Escherichia coli): 5 µg/mL (≈ 4.34 µM) |
| 2-(2- Aminoethyl) octanoyl L- Thr-L-Dap- polymyxin heptapeptide [Example C6, reference compound] |  |  |  |  |  |  |  |  |  |  |  |  |  |  |  |  |  | HK-2 IC50 (HK-2 cells; HK-2 cells): 51 µg/mL; MIC A. baumanii 053 (Acinetobacter baumannii; strain 053): 32 µg/mL; MIC A. baumanii 056 (Acinetobacter baumannii; strain 056): 32 µg/mL; MIC A. baumanii ATCC BAA-747 (Acinetobacter baumannii; strain ATCC BAA-747): 0.06 µg/mL; MIC A. baumanii NCTC 13424 (Acinetobacter baumannii; strain NCTC 13424): 0.03 µg/mL; MIC K. pneumoniae 063 (Klebsiella pneumoniae; strain 063): 8 µg/mL; MIC K. pneumoniae 065 (Klebsiella pneumoniae; strain 065): 0.25 µg/mL; MIC K. pneumoniae ATCC 4352 (Klebsiella pneumoniae; strain ATCC 4352): 0.06 µg/mL; MIC K. pneumoniae ATCC 13882 (Klebsiella pneumoniae; strain ATCC 13882): 0.125 µg/mL; MIC E. coli 058 (Escherichia coli; strain 058): 1 µg/mL; MIC E. coli 061 (Escherichia coli; strain 061): 8 µg/mL; MIC E. coli ATCC 25922 (Escherichia coli; strain ATCC 25922): 0.125 µg/mL; MIC E. coli NCTC 9001 (Escherichia coli; strain NCTC 9001): 0.06 µg/mL; MIC P. aeruginosa 068 (Pseudomonas aeruginosa; strain 068): 2 µg/mL; MIC P. aeruginosa 070 (Pseudomonas aeruginosa; strain 070): 8 µg/mL; MIC P. aeruginosa ATCC 27853 (Pseudomonas aeruginosa; strain ATCC 27853): 0.125 µg/mL; MIC P. aeruginosa CCUG 59347 (Pseudomonas aeruginosa; strain CCUG 59347): 0.125 µg/mL |
| CC(C)C[C@@H]1NC(=O)[C@@H](CC2CCCCC2)NC(=O)[C@H](CCN)NC(=O)[C@@H](NC(=O)[C@H](CN)NC(=O)[C@@H](NC(=O)C(CCN)Cc2ccccc2)C(C)O)CCNC(=O)[C@H]([C@@H](C)O)NC(=O)[C@H](CCN)NC(=O)[C@H](CCN)NC1=O (single isomer, unassigned; isomer 2) [Example 35, 4-amino-2-benzylbutanoyl L-Thr-L-Dap-polymyxin [D-cyclohexylalanine]-6 heptapeptide. Isomer 2] | 152 | >64 | 64 (≈ 56.6 µM) | 0.5 (≈ 0.442 µM) | 16 (≈ 14.2 µM) | 0.5 (≈ 0.442 µM) | 0.125 (≈ 0.111 µM) | 4 (≈ 3.54 µM) | 16 (≈ 14.2 µM) | 0.25 (≈ 0.221 µM) | 1 (≈ 0.885 µM) | 2 (≈ 1.77 µM) | 0.25 (≈ 0.221 µM) | 0.25 (≈ 0.221 µM) | 0.06 (≈ 0.0531 µM) | 0.06 (≈ 0.0531 µM) | 0.25 (≈ 0.221 µM) |  |
| CCCCCCC(CCN)C(=O)N[C@H](C(=O)N[C@@H](CCN)C(=O)N[C@H]1CCNC(=O)[C@H]([C@@H](C)O)NC(=O)[C@H](CCN)NC(=O)[C@H](CCN)NC(=O)[C@H](CC(C)C)NC(=O)[C@@H](Cc2ccccc2)NC(=O)[C@H](CCN)NC1=O)C(C)O (stereo partly shown) [Example C5, 2-(2-Aminoethyl) octanoyl polymyxin B nonapeptide, reference compound] (X6-[Thr(3ξ)][Dab][Dab][Dab][dF]L[Dab][Dab]T; lactam 3-C) | 29 | >64 | 16 (≈ 14.1 µM) | 0.125 (≈ 0.11 µM) | 8 (≈ 7.06 µM) | 1 (≈ 0.883 µM) | 0.06 (≈ 0.053 µM) | 2 (≈ 1.77 µM) | 16 (≈ 14.1 µM) | 0.06 (≈ 0.053 µM) | 8 (≈ 7.06 µM) | 32 (≈ 28.3 µM) | 0.125 (≈ 0.11 µM) | 0.25 (≈ 0.221 µM) | 0.125 (≈ 0.11 µM) | 0.03 (≈ 0.0265 µM) | 0.5 (≈ 0.442 µM) |  |
